Results reported in patent US6448442B1, “Contrast media” (Amersham Health AS, priority 1999, dated 2002).

Experiments:
[1] = Solubility (remark in Table 2); type: physicochemical; details: aqueous solution, no viscosity given
[2] = 350 mgI/ml, 20° C., data from literature; cited from earlier work

solubility [1] | Compound | Viscosity [2] [mPas]
low solubility | OCc1cc(OCC(O)CO)c(I)c(OCC(O)CO)c1I (centres unmarked) [Example 78, 3,5-Bis-(2,3-dihydroxypropyloxy)-2,4-diiodobenzyl alcohol] | 
 | CN(C(=O)CO)c1c(I)c(C(=O)NCC(O)CO)c(I)c(C(=O)NCC(O)CO)c1I (centres unmarked) [Iomeprol] | 15.4
